This is an account of results in US5859026A, “Quinoline carboxylic acid” (priority 1995, dated 1999).

One data set deals with Male Hartley guinea pigs. As to the kind of experiment: Phototoxicity. The format is in vivo, guinea pig. The following applies: 10 mg/kg intravenous, UV exposure 90 minutes, observed 24 hours after irradiation; animals with erythemas/animals tested. As to the method:
Male Hartley guinea pigs were intravenously administered with test compounds at a dose of 10 mg/kg, and then immediately exposed to WVA on their backs for 90 minutes. Erythemas on the UV irradiated skin were observed 24 hours after the irradiation.

The next data set deals with Male Wistar rats. As to the kind of experiment: Induction of convulsions, intracerebroventricular (i.c.v.) administration. The format is in vivo, rat. The note with it: 30 minutes after i.p. fenbufen 50 mg/kg, observed at least 4 hours. As to the method:
2) Intracerebroventricular (i.c.v.) administration
Male Wistar rats (weighing 180-220 g) were anesthetized with sodium pentobarbital at 45 mg/kg, i.p., and then the head of the rat was fixed in a stereotaxic apparatus. A stainless steel guide cannula for intracerebroventricular injectionin in 0.6 mm diameter was implanted as a guide cannula so as to be positioned at 1.5 mm above the left lateral cerebroventricle (A:6.2,R:1.0,H:+1.0) according to the brain atlas of De Groot (1959). The guide cannula was fixed by using a dental cement, and then closed with a stainless steel stylet in 0.3 mm diameter. Potassium penicillin G (10,000 units) were subcutaneously administered to prevent an infection. The rats were subjected to the experiments after recovery time for several days from the surgery.
For the measurement of the induction of convulsions, 50 mg/kg of fenbufen was intraperitoneally administered, and then the test compound was intracerebroventricularly administered after 30 minutes from the administration of fenbufen by means of a stainless steel cannula in 0.3 mm diameter that was connected with a polyethylene catheter and adjusted so as to be 1.5 mm longer than the guide cannula for an administration at an accurate position of cerebroventricle (H:+1.0). […] After the completion of the above experiment, the administered positions were confirmed by intraventricularly injecting 10 μl of 1% Evans blue to each of the rats, and followed by sectioning the brains.

As to `Cc1c(N2CCNCC2)c(F)c(N)c2c(=O)c(C(=O)O)cn(C3CC3)c12` [Reference Compound B, 5-amino-1-cyclopropyl-6-fluoro-1,4-dihydro-8-methyl-4-oxo-7-piperazinylquinoline-3-carboxylic acid, reference compound], in the data set on Male Hartley guinea pigs, the “Phototoxicity (number of guinea pigs with erythemas)” value is reported as 0/5. For the same molecule, the “Induction of convulsions, i.c.v. (in words)” value with Male Wistar rats is reported as “convulsions were observed in all of the animals (each three animals)”. The “Induction of convulsion, i.c.v. (number of rats with convulsions)” value with Male Wistar rats (animals with convulsions/animals tested) is 3/3.
